pIC50: −log10 of the molar value.
Key:
Format in all cases: cell-based, human
[1] = tested on: A549 cells (KRAS G12S mutant); assay: Cell proliferation inhibition experiment, 3D spheroid, CellTiter-Glo, A549; details: Homo sapiens, A549, 120 h, A549 (KRAS G12S mutant) 3D spheroid, 5 days with compound, CellTiter-Glo; read-out: A549 IC50
Procedure, shortened: (§1)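 3D spheroid format; 800 H358 / 400 A549 cells/well, 2% FBS. Cpd 3.16-fold series, 0.1% DMSO, 5 d. Readout CellTiter-Glo luminescence; IR% vs DMSO control and medium blank; 4-parameter IC50.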

[2] = tested on: KRAS G12C mutant MIA PaCa-2 cells; assay: Cell proliferation inhibition experiment, 3D spheroid, CellTiter-Glo, MIA PaCa-2; details: Homo sapiens, MIA PaCa-2, 120 h, 3D cell model in 384-well spheroid plate, 5 days, CellTiter-Glo; read-out: MIA-PaCa2 IC50
Procedure, shortened: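 Luminescent ATP read-out (CellTiter-Glo) after 5-day compound treatment of spheroids formed overnight from 200 MIA PaCa-2 cells/well; compounds in 3.16-fold series, 0.1% DMSO final. IC50 derived by four-parameter fit of percent inhibition, normalized to DMSO control and medium blank.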

[3] = tested on: KRAS G12C mutant NCI-H358 cells; assay: Cell proliferation inhibition experiment, 3D spheroid, CellTiter-Glo, NCI-H358; details: Homo sapiens, NCI-H358, 120 h, NCI-H358 (KRAS G12C mutant) 3D spheroid, 5 days with compound, CellTiter-Glo; read-out: H358 IC50
Procedure, shortened: as §1

pIC50 [1] | pIC50 [2] | pIC50 [3] | Compound
4.69 | 7.47 | 7.88 | C=CC(=O)N1CCN2C(=O)c3c(N4CC(O)CC4(C)C)nc(-c4c(F)cccc4OC)c(F)c3OC[C@H]2C1 (single isomer, unassigned) [Z450]
5.91 | 7.14 | 7.66 | C=CC(=O)N1CCN2C(=O)c3c(NC45CC(C4)C5)nc(-c4c(O)cccc4F)c(Cl)c3OC[C@H]2C1 [Z41, (6aR)-8-acryloyl-1-(bicyclo [1.1.1]pentan-1-ylamino)-4-chloro-3-(2-fluoro-6-hydroxyphenyl)-6,6a,7,8,9,10-hexahydro-12H-pyrazino[2,1-c]pyrido[3,4-f][1,4]oxazepin-12-one]
5.76 | 7.13 | 7.80 | C=CC(=O)N1CCN2C(=O)c3c(N4C[C@@H](N(C)C)CC4(C)C)nc(-c4cccc(C)c4F)c(Cl)c3OC[C@H]2C1 (single isomer, unassigned) [Z472-1]
5.67 | 8.00 | 8.40 | C=CC(=O)N1CCN2C(=O)c3c(N4C[C@H](N(C)CCOC)CC4(C)C)nc(-c4ccccc4F)c(Cl)c3OC[C@H]2C1 (single isomer, unassigned) [Z406-1]
5.05 | 7.95 | 8.41 | C=CC(=O)N1CCN2C(=O)c3c(N4CCN(C)C[C@@H]4C)nc(-c4c(O)cccc4Cl)c(Cl)c3OC[C@H]2C1 [Z452, (6aR)-8-acryloyl-4-chloro-3-(2-chloro-6-hydroxyphenyl)-1-((S)-2,4-dimethylpiperazin-1-yl)-6,6a,7,8,9,10-hexahydro-12H-pyrazino[2,1-c]pyrido[3,4-f][1,4]oxazepin-12-one]
5.54 | 7.85 | 8.22 | C=CC(=O)N1CCN2C(=O)c3c(N4C[C@@H](NC)CC4(C)C)nc(-c4ccccc4F)c(Cl)c3OC[C@H]2C1 (single isomer, unassigned) [Z661-1]
5.56 | 7.38 | 8.15 | C=CC(=O)N1CCN2C(=O)c3c(N4C[C@@H](N5CCC5)CC4(C)C)nc(-c4ccccc4F)c(Cl)c3OC[C@H]2C1 (single isomer, unassigned) [Z471-1]
5.21 | 7.62 | 7.96 | C=CC(=O)N1CCN2C(=O)c3c(N4CC[C@H](N(C)C)C4(C)C)nc(-c4ccccc4F)c(Cl)c3OC[C@H]2C1 [Z502-2, (6aR)-8-acryloyl-4-chloro-1-(3-(dimethylamino)-2,2-dimethylpyrrolidin-1-yl)-3-(2-fluorophenyl)-6,6a,7,8,9,10-hexahydro-12H-pyrazino[2,1-c]pyrido[3,4-f][1,4]oxazepin-12(6aH)-one]
5.48 | 7.85 | 8.22 | C=CC(=O)N1CCN2C(=O)c3c(N4C[C@@H](N(C)C)CC4(C)C)nc(-c4ccccc4F)c(Cl)c3OC[C@H]2C1 [Z453-1, (R)-8-acryloyl-4-chloro-1-((S)-4-(dimethylamino)-2,2-dimethylpyrrolidin-1-yl)-3-(2-fluorophenyl)-6,6a,7,8,9,10-hexahydro-12H-pyrazino[2,1-c]pyrido[3,4-f][1,4]oxazepin-12-one]
5.05 | 6.90 | 7.72 | C=CC(=O)N1CCN2C(=O)c3c(N4CC(O)CC4(C)C)nc(-c4ccccc4Cl)c(F)c3OC[C@H]2C1 (stereo partly drawn) [Z414-1, (6aR)-8-acryloyl-3-(2-chlorophenyl)-4-fluoro-1-(4-hydroxy-2,2-dimethylpyrrolidin-1-yl)-6,6a,7,8,9,10-hexahydro-12H-pyrazino[2,1-c]pyrido[3,4-f][1,4]oxazepin-12-one]
5.30 | 7.95 | 8.59 | C=CC(=O)N1CCN2C(=O)c3c(N4CC(N(C)CCO)CC4(C)C)nc(-c4ccccc4F)c(Cl)c3OC[C@H]2C1 (stereo partly drawn) [Z658, (6aR)-8-acryloyl-4-chloro-3-(2-fluorophenyl)-1-(4-((2-hydroxyethyl)(methyl)amino)-2,2-dimethylpyrrolidin-1-yl)-6,6a,7,8,9,10-hexahydro-12H-pyrazino[2,1-c]pyrido[3,4-f][1,4]oxazepin-12-one]
5.03 | 7.10 | 7.66 | C=CC(=O)N1CCN2C(=O)c3c(N4C[C@@H](O)CC4(C)C)nc(-c4ccccc4F)c(F)c3OC[C@H]2C1 (single isomer, unassigned) [Z408-1]
5.14 | 6.95 | 7.57 | C=CC(=O)N1CCN2C(=O)c3c(N4C[C@H](N(C)CC(F)(F)F)CC4(C)C)nc(-c4ccccc4F)c(Cl)c3OC[C@H]2C1 (single isomer, unassigned) [Z493]
< 4.52 | < 6.00 | 6.52 | C=CC(=O)N1CCN2C(=O)c3c(N4CC(C(=O)O)CC4(C)C)nc(-c4c(O)cccc4F)c(Cl)c3OC[C@H]2C1 (stereo partly drawn) [Z458, 1-((6aR)-8-acryloyl-4-chloro-3-(2-fluoro-6-hydroxyphenyl)-12-oxo-6,6a,7,8,9,10-hexahydro-12H-pyrazino[2,1-c]pyrido[3,4-f][1,4]oxazepin-1-yl)-5,5-dimethylpyrrolidine-3-carboxylic acid]
5.60 | 8.00 | 8.35 | C=CC(=O)N1CCN2C(=O)c3c(N4C[C@@H](N5CC(C#N)C5)CC4(C)C)nc(-c4ccccc4F)c(Cl)c3OC[C@H]2C1 (single isomer, unassigned) [Z637-2]
< 5.15 | 7.15 | 7.77 | C=CC(=O)N1CCN2C(=O)c3c(N4CCCC45CC5)nc(-c4c(O)cccc4F)c(Cl)c3OC[C@H]2C1 [Z56, (6aR)-8-acryloyl-4-chloro-3-(2-fluoro-6-hydroxyphenyl)-1-(4-azaspiro[2.4]heptan-4-yl)-6,6a,7,8,9,10-hexahydro-12H-pyrazino[2,1-c]pyrido[3,4-f][1,4]oxazepin-12-one]
5.39 | 7.96 | 8.52 | C=CC(=O)N1CCN2C(=O)c3c(N4C[C@@H](NCC(F)(F)F)CC4(C)C)nc(-c4ccccc4F)c(Cl)c3OC[C@H]2C1 (single isomer, unassigned) [Z662-1]
5.55 | 6.32 | 6.55 | C=CC(=O)N1CCN2C(=O)c3c(N4C[C@H](N5CC(F)(F)C5)CC4(C)C)nc(-c4ccccc4F)c(Cl)c3OC[C@H]2C1 (single isomer, unassigned) [Z525-1]
4.54 | 7.80 | 7.91 | C=CC(=O)N1CCN2C(=O)c3c(N4CCC[C@@]4(C)C(=O)NC)nc(-c4c(O)cccc4F)c(Cl)c3OC[C@H]2C1 [Z462, (2S)-1-((6aR)-8-acryloyl-4-chloro-3-(2-fluoro-6-hydroxyphenyl)-12-oxo-6,6a,7,8,9,10-hexahydro-12H-pyrazino[2,1-c]pyrido[3,4-f][1,4]oxazepin-1-yl)-N,2-dimethylpyrrolidine-2-carboxamide]
< 4.52 | 7.47 | 7.41 | C=CC(=O)N1CCN2C(=O)c3c(OC4CCCN(C)C4)nc(-c4c(O)cccc4F)c(Cl)c3OC[C@H]2C1 (stereo partly drawn) [Z43, (6aR)-8-acryloyl-4-chloro-3-(2-fluoro-6-hydroxyphenyl)-1-((1-methylpiperidin-3-yl)oxy)-6,6a,7,8,9,10-hexahydro-12H-pyrazino[2,1-c]pyrido[3,4-f][1,4]oxazepin-12-one]
5.07 | 7.30 | 7.82 | C=CC(=O)N1CCN2C(=O)c3c(N4C[C@H](N5CC(F)C5)CC4(C)C)nc(-c4ccccc4F)c(F)c3OC[C@H]2C1 [Z654-2, (R)-8-acryloyl-4-fluoro-1-((R)-4-(3-fluoroazetidin-1-yl)-2,2-dimethylpyrrolidin-1-yl)-3-(2-fluorophenyl)-6,6a,7,8,9,10-hexahydro-12H-pyrazino[2,1-c]pyrido[3,4-f][1,4]oxazepin-12-one]
